Laboratory results taken from patent US20260355168A1, “COMPOSITIONS AND METHODS FOR TREATING AND DETECTING CANCER” (CASE WESTERN RESERVE UNIVERSITY, priority 2022, published 2026).
Entries after “also recorded” stand apart in the source; their conditions may differ.

Legend:
PTPμ = PTPμ (Homo sapiens, UniProt P28827); assay: PTPμ-dependent Sf9 aggregation assay; assay type: cell-based; conditions: 100 μM; 20 min pretreatment; in words
glioma cells = assay: Glioma cell assays combined (scratch and sphere, several cell lines); assay type: cell-based, human; conditions: 100 μM; for Effect on glioma cells, overall: multiple assays and cell lines
Procedure: FIG. 2 illustrates a schematic of a functional screening approach. Seventy-four PTPμ wedge-targeted compounds and 2 blinded DMSO samples were received from Atomwise and screened at 100 μM in scratch wound healing assays using two glioma cell lines (LN229 and U87). Selected active and control compounds were taken into secondary assays (Gli36 scratch and LN229 and Gli36 sphere formation and growth assays). Inhibitors selected as being active in primary and secondary screens were tested for effects on the survival of LN229 and Sf9 cells, and selected glioma-cell inhibitors and activators were screened for effects on Sf9-PTPμ aggregation, a highly specific test for PTPμ function.
(§1) Cells were seeded at a density of 2.7×10^4 cells per well into the internal wells of Incuyte1 Imagelock 96-well plates (Essen BioScience Inc., Ann Arbor, MI) and cultured overnight to form monolayers. Monolayers were wounded with an IncuCyte1 96-well Woundmaker Tool per the manufacturer's instructions. The outer wells were filled with PBS to buffer edge effects, and then the wounded monolayers were cultured in 100 μl of fresh media with compounds or DMSO (2×replicates at 100 μM or 1%, respectively) at 37 °C and 5% CO2. Images were captured every 4 hrs. using an Incucyte live cell imaging system equipped with the Scratch Wound Module. Scratch wound widths were calculated, per the manufacturer's instructions, at TO and at endpoint (typically T12 for LN229 and U87 cells and T8 for Gli36), which was taken as the last timepoint before wound closure. The cell migration distance was calculated from scratch widths [(T0Width−TendpointWidth)/2] and normalized to the average distance migrated by the DMSO controls. Values are presented as average percentages±standard errors of the means (s.e.m.). The majority of compounds were screened with an n of two, but the n for priority hits ranges from 2-6.
(§2) Cells were seeded at a density of 7500 cells per well into the internal wells of 96-well plates coated with 0.75% (wt/vol) PVA as previously described. Compounds were added (2×replicates per treatment) at the indicated final concentrations, and control wells were treated with matching concentrations of DMSO. The external wells of the plates were filled with PBS to buffer against edge effects, and the cells were incubated at 37 °C and 5% CO2 for 7 days. A Leica CTR6500 microscope fitted with an automated stage was used to capture brightfield images on day 1 and day 7, and sphere footprint areas were measured using Image J (v1.52a http://imagej.nih.gov/ij) as previously described. To quantify the effects of the compounds on day 1, the footprint areas of the treated wells were normalized to the average area of the matched DMSO control wells. To quantify the effects of the compounds on sphere growth, the change in the sphere footprint areas was calculated ([…]) and then normalized to the average size change of the matched DMSO samples. All values are presented as average percentages±s.e.m.

LN229 cells [1] = assay: LN229 scratch wound healing assay; assay type: cell-based, human; conditions: for activity at 100 µM: Homo sapiens, LN-229, normalized to DMSO controls, read-out: LN229 scratch wound closure relative to DMSO controls
Description: FIGS. 3(A-D) illustrate a histogram and images of the LN229 scratch wound assays. A. Histogram showing the effects of all soluble wedge-targeted compounds on LN229 scratch wound closure. Cell movement into the scratches was quantified from scratch wound widths at the start and end of the assay and normalized to the average movement of cells in the unblinded DMSO control samples. Data is presented as average percentages±standard error of the means (s.e.m.), and compound bar codes are shown on the x-axis. The majority of compounds were screened with an n=2. Some priority compounds were screened with 3-6 replicates. Representative endpoint images of samples treated with DMSO (B) and two priority inhibitors (C and D) are shown. The relative migration distances for each example are indicated.
as §1
Scratch assays measure the ability of cells to migrate into a wound and close it creating a monolayer.

LN229 cells [2] = assay: LN229 glioma sphere formation and growth assay; assay type: cell-based, human; conditions: 100 μM, in words; for Effect on LN229 sphere formation: day 1; for Effect on LN229 sphere growth: day 7
Procedure: FIGS. 5(A-E) illustrate a histogram and images showing the results of the LN229 sphere formation and growth assays. Selected inhibitors, activators, and control compounds identified in LN229 and/or U87 scratch wound closure assays were retested at 100 μM in a secondary assay for glioma cell (LN229) sphere formation and growth. A. Histogram showing the effects of the indicated compounds on sphere formation. On day 1, sphere footprint areas were determined and normalized to the average footprint area of the unblinded vehicle-treated controls. On day 1, a larger footprint area indicates inhibition of aggregation. B. Histogram showing the effects of the indicated compounds on sphere growth. On day 7, the changes in sphere footprint areas were calculated and normalized to the average size change of the unblinded vehicle-treated controls. On day 7, a smaller value indicates reduced growth. […] Data is presented as percentages±s.e.m. of 2-4 replicates. Representative images of samples treated with DMSO (C) and two priority inhibitors (D and E) are shown. Relative day 1 footprint areas and day 7 growth measurements are indicated for each example.
FIGS. 15(A-D) illustrate a histogram and images of titration of selected compounds on LN229 sphere formation and growth. LN229 cells were plated onto non-adherent surfaces and treated with the indicated compounds at 100, 50, and 25 μM. A. On day 1, sphere footprint areas were determined and normalized to the average footprint area of the unblinded vehicle-treated controls. On day 1, a larger foot-print area indicates inhibition of aggregation. B. On day 7, the changes in sphere footprint areas were calculated and normalized to the average size change of the unblinded vehicle-treated controls. On day 7, a smaller value indicates reduced growth. […] Data is presented as percentages±s.e.m. The initial test at 100 μM and the follow-up at that dose with titration is shown. Each bar is the average of 2 replicates. Representative day 1 (C) and day 7 (D) images of samples treated with two priority inhibitors are shown. Relative day 1 sphere footprint areas and day 7 growth for each example are indicated.
as §2
We tested the effects of twenty-four compounds (11 flagged as inhibitory, 4 as stimulatory, and nine as inert in the initial scratch-wound screen, FIG. 2) on the ability of LN229 cells to mediate cell-cell adhesion and grow in 3D culture on non-adherent surfaces. To quantify sphere formation (FIG. 5A), the footprint areas of aggregates were measured on day 1 and normalized to that of the DMSO control. At this time point, a larger footprint size (>120%) indicates inhibition, i.e., the failure of cells to form a compact aggregate. To quantify sphere growth (FIG. 5B), we calculated the percent changes in sphere footprint areas between day 1 and day 7 and normalized them to that of the DMSO controls.

LN229 cells [3] = assay: Helix Blue staining of LN229 spheres (cell survival); assay type: cell-based, human; conditions: 100 μM, 24 h, qualitative
Procedure: (§3) FIG. 17 illustrates images showing the effects of prioritized inhibitors on cell survival. LN229 cells were plated onto non-adherent surfaces and cultured in the presence of the indicated compounds (100 μM). On day 1, spheres were stained with Helix Blue to detect dying cells. Parental Sf9 cells (which lack PTPμ) plated onto tissue culture plastic were also grown in the presence of the indicated compounds and, on day 1, stained with Helix Blue. Three compounds appeared to cause a qualitative increase in staining in LN229 spheres. No compound was toxic to Sf9 cells.
(§4) LN229 cells, plated onto non-adherent surfaces as described above, and parental Sf9 cells (without PTPμ), seeded into 96-well flat bottom tissue culture plates, were treated for 24 h with the indicated compounds (100 μM). The cells and spheres were then treated with 5.5 μM Helix Blue (Biolegend, San Diego, CA) and imaged at 10× on a Leica CTR6500 fluorescence microscope.
(§5) The seven penetrant inhibitors were tested to see if they affected the survival of LN229 spheres and parental Sf9 cells (which lack PTPμ) (FIG. 17).

parental Sf9 cells = assay: Helix Blue staining of parental Sf9 cells (cell survival); assay type: cell-based, insect; conditions: 100 μM, 24 h, cells lack PTPμ
Procedure: as §3, §4, §5

U87 cells = assay: U87 scratch wound healing assay; assay type: cell-based, human; conditions: 100 μM
Description: FIGS. 11(A-D) illustrate a histogram and images of the results of the U87 scratch wound assays. A. Histogram showing the effects of all soluble wedge pocket-targeting compounds on U87 scratch wound closure. Cell movement into the scratches was quantified from scratch wound widths at the start and end of the assay and normalized to the average movement of cells in the unblinded DMSO control samples. Data is presented as average percentages±s.e.m., and compound bar codes are shown on the x-axis. Most compounds were screened with an n of 2-4. Representative images of scratch wounds treated with DMSO (A) or two priority inhibitors (C and D) are shown.
as §1

Chain of PTPμ (P28827 21-1452): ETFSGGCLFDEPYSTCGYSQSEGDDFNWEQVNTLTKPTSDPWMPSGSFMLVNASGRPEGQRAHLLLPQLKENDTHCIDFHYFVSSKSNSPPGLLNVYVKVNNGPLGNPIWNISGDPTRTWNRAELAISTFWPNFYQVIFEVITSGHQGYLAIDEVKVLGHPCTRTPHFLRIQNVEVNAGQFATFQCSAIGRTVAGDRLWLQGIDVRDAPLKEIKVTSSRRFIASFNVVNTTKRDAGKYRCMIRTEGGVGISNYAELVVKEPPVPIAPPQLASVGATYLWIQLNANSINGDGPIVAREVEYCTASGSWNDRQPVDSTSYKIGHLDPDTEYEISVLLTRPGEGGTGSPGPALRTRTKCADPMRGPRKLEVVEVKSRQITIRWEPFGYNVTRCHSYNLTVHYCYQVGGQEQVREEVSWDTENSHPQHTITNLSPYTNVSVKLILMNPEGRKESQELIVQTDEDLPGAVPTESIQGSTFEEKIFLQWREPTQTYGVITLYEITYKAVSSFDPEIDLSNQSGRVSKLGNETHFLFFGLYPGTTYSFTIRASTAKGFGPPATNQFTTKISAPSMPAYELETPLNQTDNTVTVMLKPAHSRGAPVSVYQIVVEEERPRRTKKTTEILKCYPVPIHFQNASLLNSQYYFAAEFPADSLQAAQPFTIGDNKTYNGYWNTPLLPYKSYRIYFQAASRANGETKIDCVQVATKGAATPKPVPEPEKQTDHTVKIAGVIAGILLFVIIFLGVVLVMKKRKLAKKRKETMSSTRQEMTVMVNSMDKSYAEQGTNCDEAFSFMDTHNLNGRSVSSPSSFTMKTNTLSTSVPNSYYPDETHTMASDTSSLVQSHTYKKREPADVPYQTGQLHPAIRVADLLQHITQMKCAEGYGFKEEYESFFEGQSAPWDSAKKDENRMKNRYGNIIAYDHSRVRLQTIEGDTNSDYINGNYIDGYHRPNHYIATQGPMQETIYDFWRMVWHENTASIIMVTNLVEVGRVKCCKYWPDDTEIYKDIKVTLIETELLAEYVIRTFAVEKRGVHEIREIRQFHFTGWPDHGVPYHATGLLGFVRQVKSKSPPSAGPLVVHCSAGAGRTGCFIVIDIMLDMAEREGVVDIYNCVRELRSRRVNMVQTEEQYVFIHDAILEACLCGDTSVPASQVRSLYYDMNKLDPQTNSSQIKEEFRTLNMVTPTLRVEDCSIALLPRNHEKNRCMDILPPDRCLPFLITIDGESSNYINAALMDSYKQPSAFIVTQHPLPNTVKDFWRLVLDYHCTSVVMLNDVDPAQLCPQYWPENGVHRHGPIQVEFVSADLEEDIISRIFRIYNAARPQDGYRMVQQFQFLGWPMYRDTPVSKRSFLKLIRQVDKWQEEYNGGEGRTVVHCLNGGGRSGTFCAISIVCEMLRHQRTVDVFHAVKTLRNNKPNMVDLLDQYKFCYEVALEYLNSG

## Cc1cccc(-c2ccc3c(c2)C(=O)N2CCC(NC(=O)COCC(=O)O)C2C(=O)N3)c1C (centres unmarked) [Compound 247685429]
PTPμ
  Effect on PTPμ-dependent Sf9 aggregation / adhesion: able to inhibit PTPμ-dependent adhesion; also recorded: able to inhibit PTPμ-mediated aggregation
Glioma cells
  Effect on glioma cells, overall: did not affect glioma cells

## O=C1NC2(CCCC2)C(=O)N1CC(=O)N(Cc1cccs1)c1ccc2c(c1)OCCO2 [Compound 247679515]
LN229 cells [1]; 100 μM
  Effect on LN229 cell morphology in scratch assay: rounding
LN229 cells [1]
  activity at 100 µM: < 60%
LN229 cells [2]
  Effect on LN229 sphere formation: completely blocked sphere formation
PTPμ
  Effect on PTPμ-dependent Sf9 aggregation / adhesion: not shown to affect PTPμ-mediated aggregation; also recorded: did not affect PTPμ-dependent adhesion
Glioma cells
  Effect on glioma cells, overall: highly penetrant inhibitors in glioma cell assays

## COc1ccccc1CNC(=O)CC(NC(N)=O)c1cccc(Oc2ccccc2)c1 (centres unmarked) [Compound 247679045]
LN229 cells [1]
  activity at 100 µM: < 60%
LN229 cells [2]
  Effect on LN229 sphere formation: completely blocked sphere formation
LN229 cells [3]
  Effect on LN229 cell survival / cell death: caused a qualitative increase in LN229-cell death
Parental Sf9 cells
  Effect on parental Sf9 cell survival: did not affect parental Sf9 cells
PTPμ
  Effect on PTPμ-dependent Sf9 aggregation / adhesion: not shown to affect PTPμ-mediated aggregation; also recorded: did not affect PTPμ-dependent adhesion
Glioma cells
  Effect on glioma cells, overall: highly penetrant inhibitors in glioma cell assays

## CCC1(CC)NC(=O)N(CC(=O)Nc2ccc(Oc3ccccc3)cc2)C1=O [Compound 247682206]
LN229 cells [1]
  activity at 100 µM: < 60%
U87 cells
  Effect on U87 cell morphology in scratch assay: pile-up of U87 cells at the edge of the scratch wound
LN229 cells [2]
  Effect on LN229 sphere formation: delayed sphere formation
  Effect on LN229 sphere growth: inhibited growth
PTPμ
  Effect on PTPμ-dependent Sf9 aggregation / adhesion: PTPμ-dependent adhesion; also recorded: affect PTPμ-mediated aggregation
Glioma cells
  Effect on glioma cells, overall: highly penetrant inhibitors; also recorded: able to inhibit glioma cells
Glioma cells; scratch assays
  Effect on glioma cell migration: able to inhibit glioma cell migration

## CC(C)COc1ccc(C(=O)N2CCNC(=O)C2CC(=O)OC2CCCCC2)cc1 (centres unmarked) [Compound 247682240]
LN229 cells [1]
  activity at 100 µM: < 60%
U87 cells
  Effect on U87 cell morphology in scratch assay: pile-up of U87 cells at the edge of the scratch wound
LN229 cells [2]
  Effect on LN229 sphere formation: delayed sphere formation
  Effect on LN229 sphere growth: inhibited growth
PTPμ
  Effect on PTPμ-dependent Sf9 aggregation / adhesion: not shown to affect PTPμ-mediated aggregation
Glioma cells
  Effect on glioma cells, overall: highly penetrant inhibitors
